From ChEMBL document CHEMBL4477227, “Synthesis and antibacterial evaluation of macrocyclic diarylheptanoid derivatives” (Bioorg Med Chem Lett, 2016)
Converted amounts (≈) assume the structure as drawn.

What was measured:
[1] = test system: J774.1; experiment: Inhibition of LPS-induced NO production in mouse J774.1 cells after 24 by Griess assay; assay type: functional, cell-based
[2] = test system: Mycobacterium tuberculosis; experiment: Antitubercular activity against Mycobacterium tuberculosis H37Rv by microbroth dilution method; assay type: functional; conditions: Mycobacterium tuberculosis, H37Rv; read-out: MIC
[3] = test system: Bacillus anthracis; experiment: Antibacterial activity against Bacillus anthracis Sterne 34F2 by microbroth dilution method; assay type: functional; conditions: Bacillus anthracis, Sterne 34F2; read-out: MIC
[4] = test system: Enterococcus faecalis; experiment: Antibacterial activity against Enterococcus faecalis ATCC 33186 by microbroth dilution method; assay type: functional; conditions: Enterococcus faecalis, ATCC 33186; read-out: MIC
[5] = test system: Staphylococcus aureus; experiment: Antibacterial activity against methicillin-sensitive Staphylococcus aureus ATCC 29213 by microbroth dilution method; assay type: functional; conditions: Staphylococcus aureus, ATCC 29213; read-out: MIC
[6] = test system: Staphylococcus aureus; experiment: Antibacterial activity against methicillin-resistant Staphylococcus aureus NRS70 by microbroth dilution method; assay type: functional; conditions: Staphylococcus aureus, NRS70; read-out: MIC
[7] = test system: Streptococcus pyogenes; experiment: Antibacterial activity against Streptococcus pyogenes ATCC 700294 by microbroth dilution method; assay type: functional; conditions: Streptococcus pyogenes, ATCC 700294; read-out: MIC
[8] = test system: Streptococcus pneumoniae; experiment: Antibacterial activity against Streptococcus pneumoniae R6 by microbroth dilution method; assay type: functional; conditions: Streptococcus pneumoniae, R6; read-out: MIC
[9] = test system: Bacillus subtilis; experiment: Antibacterial activity against Bacillus subtilis ATCC 23857 by microbroth dilution method; assay type: functional; conditions: Bacillus subtilis, ATCC 23857; read-out: MIC
[10] = test system: Acinetobacter baumannii; experiment: Antibacterial activity against Acinetobacter baumannii ATCC 19606 by microbroth dilution method; assay type: functional, ATCC 19606 = CIP 70.34 = JCM 6841; conditions: Acinetobacter baumannii, ATCC 19606 = CIP 70.34 = JCM 6841; read-out: MIC
[11] = test system: Escherichia coli; experiment: Antibacterial activity against Escherichia coli K-12 by microbroth dilution method; assay type: functional
[12] = test system: Escherichia coli; experiment: Antibacterial activity against Escherichia coli harboring TolC deletion mutant by microbroth dilution method; assay type: functional; conditions: Escherichia coli; read-out: MIC
[13] = test system: Burkholderia cepacia; experiment: Antibacterial activity against Burkholderia cepacia ATCC 25416 by microbroth dilution method; assay type: functional
[14] = test system: Klebsiella pneumoniae; experiment: Antibacterial activity against Klebsiella pneumoniae ATCC 33495 by microbroth dilution method; assay type: functional
[15] = test system: Proteus mirabilis; experiment: Antibacterial activity against Proteus mirabilis ATCC 25933 by microbroth dilution method; assay type: functional
[16] = test system: Proteus vulgaris; experiment: Antibacterial activity against Proteus vulgaris ATCC 33420 by microbroth dilution method; assay type: functional
[17] = test system: Pseudomonas aeruginosa; experiment: Antibacterial activity against Pseudomonas aeruginosa PAO1 by microbroth dilution method; assay type: functional
[18] = test system: Vero; experiment: Cytotoxicity against African green monkey Vero cells assessed as reduction in cell viability after 72 hrs by CellTiterGlo assay; assay type: cell-based; conditions: Chlorocebus sabaeus

| Compound | IC50 [1] | MIC [2] | MIC [3] | MIC [4] | MIC [5] | MIC [6] | MIC [7] | MIC [8] | MIC [9] | MIC [10] | MIC [11] | MIC [12] | MIC [13] | MIC [14] | MIC [15] | MIC [16] | MIC [17] | IC50 [18] |
| --- | --- | --- | --- | --- | --- | --- | --- | --- | --- | --- | --- | --- | --- | --- | --- | --- | --- | --- |
| O=C1CCCCc2ccc(OC(=O)c3ccccc3)c(c2)Oc2ccc(cc2)CC1 | 13 µM | – | – | – | – | – | – | – | – | – | – | – | – | – | – | – | – | – |
| COc1ccc2cc1Oc1cc(ccc1OC)CCC(NCCc1ccc(Cl)cc1)CCCC2 (centres undefined) | – | 25 µg/mL (≈ 52.1 µM) | 12.5 µg/mL (≈ 26 µM) | 12.5 µg/mL (≈ 26 µM) | 12.5 µg/mL (≈ 26 µM) | 12.5 µg/mL (≈ 26 µM) | 12.5 µg/mL (≈ 26 µM) | 25 µg/mL (≈ 52.1 µM) | 6.25 µg/mL (≈ 13 µM) | 25 µg/mL (≈ 52.1 µM) | > 100 µg/mL | 6.25 µg/mL (≈ 13 µM) | > 100 µg/mL | > 100 µg/mL | > 100 µg/mL | > 100 µg/mL | > 100 µg/mL | 6.8 µg/mL (≈ 14.2 µM) |
| Oc1ccc2cc1Oc1cc(ccc1O)CCC(NCCc1ccccc1)CCCC2 (centres undefined) | – | 25 µg/mL (≈ 59.9 µM) | 50 µg/mL (≈ 120 µM) | 50 µg/mL (≈ 120 µM) | > 100 µg/mL | 50 µg/mL (≈ 120 µM) | 50 µg/mL (≈ 120 µM) | 50 µg/mL (≈ 120 µM) | 25 µg/mL (≈ 59.9 µM) | 50 µg/mL (≈ 120 µM) | 100 µg/mL (≈ 239 µM) | 25 µg/mL (≈ 59.9 µM) | > 100 µg/mL | > 100 µg/mL | > 100 µg/mL | > 100 µg/mL | > 100 µg/mL | 11.1 µg/mL (≈ 26.6 µM) |
| COc1ccc2cc1Oc1cc(ccc1OC)CCC(NCCc1ccc(Br)cc1)CCCC2 (centres undefined) | – | 25 µg/mL (≈ 47.7 µM) | 12.5 µg/mL (≈ 23.8 µM) | 12.5 µg/mL (≈ 23.8 µM) | 12.5 µg/mL (≈ 23.8 µM) | 12.5 µg/mL (≈ 23.8 µM) | 50 µg/mL (≈ 95.3 µM) | 50 µg/mL (≈ 95.3 µM) | 6.25 µg/mL (≈ 11.9 µM) | 50 µg/mL (≈ 95.3 µM) | > 100 µg/mL | 12.5 µg/mL (≈ 23.8 µM) | > 100 µg/mL | > 100 µg/mL | > 100 µg/mL | > 100 µg/mL | > 100 µg/mL | 6.9 µg/mL (≈ 13.2 µM) |
| COc1ccc2cc1Oc1cc(ccc1OC)CCC(NCCc1ccc(F)cc1)CCCC2 (centres undefined) | – | 25 µg/mL (≈ 53.9 µM) | 25 µg/mL (≈ 53.9 µM) | 25 µg/mL (≈ 53.9 µM) | 25 µg/mL (≈ 53.9 µM) | 12.5 µg/mL (≈ 27 µM) | 25 µg/mL (≈ 53.9 µM) | 50 µg/mL (≈ 108 µM) | 12.5 µg/mL (≈ 27 µM) | 25 µg/mL (≈ 53.9 µM) | > 100 µg/mL | 12.5 µg/mL (≈ 27 µM) | > 100 µg/mL | > 100 µg/mL | > 100 µg/mL | > 100 µg/mL | > 100 µg/mL | 7.3 µg/mL (≈ 15.7 µM) |
| COc1ccc2cc1Oc1cc(ccc1OC)CCC(NC/C=C(\C)CCC=C(C)C)CCCC2 (centres undefined) | – | 12.5 µg/mL (≈ 26.2 µM) | 12.5 µg/mL (≈ 26.2 µM) | 12.5 µg/mL (≈ 26.2 µM) | 12.5 µg/mL (≈ 26.2 µM) | 6.25 µg/mL (≈ 13.1 µM) | 25 µg/mL (≈ 52.3 µM) | 50 µg/mL (≈ 105 µM) | 3.12 µg/mL (≈ 6.54 µM) | 25 µg/mL (≈ 52.3 µM) | 50 µg/mL (≈ 105 µM) | 6.25 µg/mL (≈ 13.1 µM) | > 100 µg/mL | > 100 µg/mL | > 100 µg/mL | > 100 µg/mL | > 100 µg/mL | 5.6 µg/mL (≈ 11.7 µM) |
| COc1ccc2cc1Oc1ccc(cc1)CCC(NCCc1ccc(F)cc1)CCCC2 (centres undefined) | – | 12.5 µg/mL (≈ 28.8 µM) | 12.5 µg/mL (≈ 28.8 µM) | 12.5 µg/mL (≈ 28.8 µM) | 12.5 µg/mL (≈ 28.8 µM) | 6.25 µg/mL (≈ 14.4 µM) | 25 µg/mL (≈ 57.7 µM) | 50 µg/mL (≈ 115 µM) | 6.25 µg/mL (≈ 14.4 µM) | 50 µg/mL (≈ 115 µM) | > 100 µg/mL | 6.25 µg/mL (≈ 14.4 µM) | > 100 µg/mL | > 100 µg/mL | > 100 µg/mL | > 100 µg/mL | > 100 µg/mL | 3.7 µg/mL (≈ 8.53 µM) |
| COc1ccc2cc1Oc1cc(ccc1OC)CCC(NCCc1ccc3ccccc3c1)CCCC2 (centres undefined) | – | 25 µg/mL (≈ 50.4 µM) | 12.5 µg/mL (≈ 25.2 µM) | 12.5 µg/mL (≈ 25.2 µM) | 12.5 µg/mL (≈ 25.2 µM) | 6.25 µg/mL (≈ 12.6 µM) | 12.5 µg/mL (≈ 25.2 µM) | 25 µg/mL (≈ 50.4 µM) | 6.25 µg/mL (≈ 12.6 µM) | > 100 µg/mL | > 100 µg/mL | 6.25 µg/mL (≈ 12.6 µM) | > 100 µg/mL | > 100 µg/mL | > 100 µg/mL | > 100 µg/mL | > 100 µg/mL | 7 µg/mL (≈ 14.1 µM) |
| COc1ccc2cc1Oc1cc(ccc1OC)CCC(OC(C)=O)CCCC2 (centres undefined) | – | > 100 µg/mL | > 100 µg/mL | > 100 µg/mL | > 100 µg/mL | > 100 µg/mL | > 100 µg/mL | > 100 µg/mL | > 100 µg/mL | > 100 µg/mL | > 100 µg/mL | 12.5 µg/mL (≈ 32.5 µM) | > 100 µg/mL | > 100 µg/mL | > 100 µg/mL | > 100 µg/mL | > 100 µg/mL | – |
| COc1cc2ccc1Oc1cc(ccc1OC)CCCCC(NCCc1ccc(F)cc1)CC2 (centres undefined) | – | 25 µg/mL (≈ 53.9 µM) | 50 µg/mL (≈ 108 µM) | 25 µg/mL (≈ 53.9 µM) | 25 µg/mL (≈ 53.9 µM) | 25 µg/mL (≈ 53.9 µM) | 50 µg/mL (≈ 108 µM) | 25 µg/mL (≈ 53.9 µM) | 12.5 µg/mL (≈ 27 µM) | 100 µg/mL (≈ 216 µM) | > 100 µg/mL | 25 µg/mL (≈ 53.9 µM) | > 100 µg/mL | > 100 µg/mL | > 100 µg/mL | > 100 µg/mL | > 100 µg/mL | – |
| COc1ccc2cc1Oc1cc(ccc1OC)CCC(NCCc1ccc3c(c1)OCO3)CCCC2 (centres undefined) | – | 25 µg/mL (≈ 51.1 µM) | 50 µg/mL (≈ 102 µM) | 50 µg/mL (≈ 102 µM) | 50 µg/mL (≈ 102 µM) | 25 µg/mL (≈ 51.1 µM) | 12.5 µg/mL (≈ 25.5 µM) | 50 µg/mL (≈ 102 µM) | 12.5 µg/mL (≈ 25.5 µM) | > 100 µg/mL | > 100 µg/mL | 12.5 µg/mL (≈ 25.5 µM) | > 100 µg/mL | > 100 µg/mL | > 100 µg/mL | > 100 µg/mL | > 100 µg/mL | – |
| CCNC1CCCCc2ccc(OC)c(c2)Oc2cc(ccc2OC)CC1 (centres undefined) | – | 100 µg/mL (≈ 271 µM) | > 100 µg/mL | > 100 µg/mL | > 100 µg/mL | > 100 µg/mL | > 100 µg/mL | > 100 µg/mL | > 100 µg/mL | > 100 µg/mL | > 100 µg/mL | > 100 µg/mL | > 100 µg/mL | > 100 µg/mL | > 100 µg/mL | > 100 µg/mL | > 100 µg/mL | – |
